# Measurements taken from patent US11912701B2, “Protein kinase inhibitors for promoting liver regeneration or reducing or preventing hepatocyte death” (HEPAREGENIX GMBH, priority 2018, dated 2024).
# Key:
# Assay type in all cases: biochemical
# MKK4 = biological target: T1, MKK4 (Homo sapiens, UniProt P45985); test: 33PanQinase enzyme assay, MKK4; conditions: assay 'IC50'; read-out: Potency MKK4 (IC50)
# T1 construct: purchased ProQinase GmbH, Freiburg, Germany (33PanQinase Assay Service)
# T1 sequence (P45985 1-399): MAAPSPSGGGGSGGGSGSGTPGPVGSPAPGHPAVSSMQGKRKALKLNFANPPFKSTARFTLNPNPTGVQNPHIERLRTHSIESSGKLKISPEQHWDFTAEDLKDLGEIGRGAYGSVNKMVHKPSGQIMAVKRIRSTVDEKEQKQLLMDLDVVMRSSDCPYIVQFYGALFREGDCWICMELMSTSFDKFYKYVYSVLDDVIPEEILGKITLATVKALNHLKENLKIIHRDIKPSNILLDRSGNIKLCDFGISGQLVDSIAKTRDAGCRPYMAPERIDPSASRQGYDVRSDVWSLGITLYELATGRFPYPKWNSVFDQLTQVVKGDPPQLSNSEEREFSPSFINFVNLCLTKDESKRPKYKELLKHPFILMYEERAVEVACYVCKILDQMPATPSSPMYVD
# Procedure, shortened: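 Inhibition measured as 33Pi transfer to substrate after a 60-min, 30 °C reaction, acid-stopped and scintillation-counted.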
# BRaf = biological target: T2, BRaf (Homo sapiens, UniProt P15056); test: 33PanQinase enzyme assay, BRaf; conditions: ratio IC50(BRaf)/IC50(MKK4)
# T2 construct: purchased ProQinase GmbH, Freiburg, Germany (33PanQinase Assay Service)
# Procedure, shortened: (§1)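 33Pi incorporation, read by microplate scintillation counting, measured kinase activity after 60 min at 30 °C. Reactions were quenched with 2% (v/v) H3PO4 and washed with 0.9% NaCl. IC50 derived by least-squares fitting; single doses reported as % residual activity.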
# JNK1 = JNK1 (Homo sapiens, UniProt P45983); test: 33PanQinase enzyme assay, JNK1; parameters: purchased ProQinase GmbH, Freiburg, Germany (33PanQinase Assay Service); conditions: ratio IC50(JNK1)/IC50(MKK4)
# Procedure, shortened: as §1
# MKK7 = biological target: T3, MKK7 (Homo sapiens, UniProt O14733); test: 33PanQinase enzyme assay, MKK7; parameters: purchased ProQinase GmbH, Freiburg, Germany (33PanQinase Assay Service); conditions: ratio IC50(MKK7)/IC50(MKK4)
# T3 sequence (O14733 1-419): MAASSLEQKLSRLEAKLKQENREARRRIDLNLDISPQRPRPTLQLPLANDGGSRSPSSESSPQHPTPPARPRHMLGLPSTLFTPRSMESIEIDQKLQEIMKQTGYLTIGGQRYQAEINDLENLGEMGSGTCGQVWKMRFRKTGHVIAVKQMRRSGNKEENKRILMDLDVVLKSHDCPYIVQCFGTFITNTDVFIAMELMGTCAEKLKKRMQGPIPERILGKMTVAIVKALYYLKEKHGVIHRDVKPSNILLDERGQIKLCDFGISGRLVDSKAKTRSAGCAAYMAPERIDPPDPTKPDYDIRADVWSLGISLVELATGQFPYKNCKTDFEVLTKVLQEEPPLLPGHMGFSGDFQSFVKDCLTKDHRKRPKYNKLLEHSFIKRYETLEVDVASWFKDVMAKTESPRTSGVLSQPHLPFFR
# Procedure, shortened: as §1
# JNK1, sequence (P45983 whole entry): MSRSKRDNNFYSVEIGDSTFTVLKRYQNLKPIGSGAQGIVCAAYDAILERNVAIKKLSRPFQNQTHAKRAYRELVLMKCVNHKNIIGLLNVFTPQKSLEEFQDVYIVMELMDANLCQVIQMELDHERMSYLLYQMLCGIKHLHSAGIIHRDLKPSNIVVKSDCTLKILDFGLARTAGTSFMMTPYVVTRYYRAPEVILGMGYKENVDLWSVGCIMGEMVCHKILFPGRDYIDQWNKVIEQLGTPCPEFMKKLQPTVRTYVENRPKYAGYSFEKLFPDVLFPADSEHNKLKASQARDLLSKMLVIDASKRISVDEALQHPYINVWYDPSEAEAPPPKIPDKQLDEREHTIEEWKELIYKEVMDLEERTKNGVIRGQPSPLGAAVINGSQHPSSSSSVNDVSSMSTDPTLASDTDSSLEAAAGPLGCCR
# T2 sequence (P15056 whole entry, species assumed): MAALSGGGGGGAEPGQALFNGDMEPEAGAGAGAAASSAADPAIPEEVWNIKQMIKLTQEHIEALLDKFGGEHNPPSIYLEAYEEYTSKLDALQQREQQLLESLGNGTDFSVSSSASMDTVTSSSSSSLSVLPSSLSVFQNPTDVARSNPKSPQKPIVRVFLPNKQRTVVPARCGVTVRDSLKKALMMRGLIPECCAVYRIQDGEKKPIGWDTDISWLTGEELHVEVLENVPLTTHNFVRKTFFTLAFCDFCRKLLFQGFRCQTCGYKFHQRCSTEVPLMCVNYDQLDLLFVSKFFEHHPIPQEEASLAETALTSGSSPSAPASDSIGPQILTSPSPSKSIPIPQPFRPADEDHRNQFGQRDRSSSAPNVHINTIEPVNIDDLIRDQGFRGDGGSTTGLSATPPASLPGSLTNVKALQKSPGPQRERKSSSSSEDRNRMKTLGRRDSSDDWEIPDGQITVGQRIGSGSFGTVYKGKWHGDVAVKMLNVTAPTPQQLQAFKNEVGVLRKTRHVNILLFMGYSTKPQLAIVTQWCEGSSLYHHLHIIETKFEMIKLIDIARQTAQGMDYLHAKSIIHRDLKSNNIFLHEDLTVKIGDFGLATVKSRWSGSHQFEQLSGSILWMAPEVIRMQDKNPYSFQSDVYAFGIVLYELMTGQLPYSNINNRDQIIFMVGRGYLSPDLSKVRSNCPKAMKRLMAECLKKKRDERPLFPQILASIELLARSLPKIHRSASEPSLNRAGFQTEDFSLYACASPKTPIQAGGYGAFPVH
Compound,IC50 (MKK4),"Selectivity Braf, IC50(off-target)/IC50(MKK4) (BRaf)","Selectivity JNK1, IC50(off-target)/IC50(MKK4) (JNK1)","Selectivity IVIKK7, IC50(off-target)/IC50(MKK4) (MKK7)"
"CCCS(=O)(=O)Nc1c(F)ccc(C(=O)c2c[nH]c3ncc(-c4ccc(C5CC5)nc4C)cc23)c1F [Example 170, N-(3-(5-(6-cyclopropyl-2-methylpyridin-3-yl)-1H-pyrrolo[2,3-b]pyridine-3-carbonyl)-2,6-difluorophenyl)propane-1-sulfonamide]",< 100 nM,+++ (IC50(off-target)/IC50(MKK4) > 100),+++ (IC50(off-target)/IC50(MKK4) > 100),+++ (IC50(off-target)/IC50(MKK4) > 100)
"CCCS(=O)(=O)Nc1c(F)ccc(C(=O)c2c[nH]c3ncc(-c4cnc(C)cc4C)cc23)c1F [Example 171, N-(3-(5-(4,6-dimethylpyridin-3-yl)-1H-pyrrolo[2,3-b]pyridine-3-carbonyl)-2,6-difluorophenyl)propane-1-sulfonamide]",< 100 nM,+++ (IC50(off-target)/IC50(MKK4) > 100),+++ (IC50(off-target)/IC50(MKK4) > 100),+++ (IC50(off-target)/IC50(MKK4) > 100)
"Cc1cnccc1-c1cnc2[nH]cc(C(=O)c3ccc(F)c(NS(=O)(=O)CCC(F)(F)F)c3F)c2c1 [Example 172, N-(2,6-difluoro-3-(5-(3-methylpyridin-4-yl)-1H-pyrrolo[2,3-b]pyridine-3-carbonyl)phenyl)-3,3,3-trifluoropropane-1-sulfonamide]",< 100 nM,+++ (IC50(off-target)/IC50(MKK4) > 100),+++ (IC50(off-target)/IC50(MKK4) > 100),+++ (IC50(off-target)/IC50(MKK4) > 100)
"CCCS(=O)(=O)Nc1c(F)ccc(C(=O)c2c[nH]c3ncc(-c4ccncc4Cl)cc23)c1F [Example 173, N-(3-(5-(3-chloropyridin-4-yl)-1H-pyrrolo[2,3-b]pyridine-3-carbonyl)-2,6-difluorophenyl)propane-1-sulfonamide]",< 100 nM,+++ (IC50(off-target)/IC50(MKK4) > 100),++ (100 ≥ IC50(off-target)/IC50(MKK4) > 10),+++ (IC50(off-target)/IC50(MKK4) > 100)
"CCCS(=O)(=O)Nc1c(F)ccc(C(=O)c2c[nH]c3ncc(-c4cnc(N5CCNCC5)nc4)cc23)c1F [Example 185, N-(2,6-difluoro-3-(5-(2-(piperazin-1-yl)pyrimidin-5-yl)-1H-pyrrolo[2,3-b]pyridine-3-carbonyl)phenyl)propane-1-sulfonamide]",100 to 1000 nM,+ (10 ≥ IC50(off-target)/IC50(MKK4) > 3),++ (100 ≥ IC50(off-target)/IC50(MKK4) > 10),+++ (IC50(off-target)/IC50(MKK4) > 100)
"CCCS(=O)(=O)Nc1c(F)ccc(C(=O)c2c[nH]c3ncc(-c4cnc(C)nc4Cl)cc23)c1F [Example 186, N-(3-(5-(4-chloro-2-methylpyrimidin-5-yl)-1H-pyrrolo[2,3-b]pyridine-3-carbonyl)-2,6-difluorophenyl)propane-1-sulfonamide]",< 100 nM,+++ (IC50(off-target)/IC50(MKK4) > 100),+++ (IC50(off-target)/IC50(MKK4) > 100),+++ (IC50(off-target)/IC50(MKK4) > 100)
"CCCS(=O)(=O)Nc1c(F)ccc(C(=O)c2c[nH]c3ncc(-c4cnc(NCCOC)nc4)cc23)c1F [Example 187, N-(2,6-difluoro-3-(5-(2-((2-methoxyethyl)amino)pyrimidin-5-yl)-1H-pyrrolo[2,3-b]pyridine-3-carbonyl)phenyl)propane-1-sulfonamide]",100 to 1000 nM,+++ (IC50(off-target)/IC50(MKK4) > 100),+++ (IC50(off-target)/IC50(MKK4) > 100),+++ (IC50(off-target)/IC50(MKK4) > 100)
"CCCS(=O)(=O)Nc1c(F)ccc(C(=O)c2c[nH]c3ncc(-c4cnc(N5CCOCC5)nc4)cc23)c1F [Example 188, N-(2,6-difluoro-3-(5-(2-morpholinopyrimidin-5-yl)-1H-pyrrolo[2,3-b]pyridine-3-carbonyl)phenyl)propane-1-sulfonamide]",< 100 nM,+++ (IC50(off-target)/IC50(MKK4) > 100),+++ (IC50(off-target)/IC50(MKK4) > 100),+++ (IC50(off-target)/IC50(MKK4) > 100)
"CCCS(=O)(=O)Nc1c(F)ccc(C(=O)c2c[nH]c3ncc(-c4cnc(C#N)nc4)cc23)c1F [Example 189, N-(3-(5-(2-cyanopyrimidin-5-yl)-1H-pyrrolo[2,3-b]pyridine-3-carbonyl)-2,6-difluorophenyl)propane-1-sulfonamide]",100 to 1000 nM,++ (100 ≥ IC50(off-target)/IC50(MKK4) > 10),++ (100 ≥ IC50(off-target)/IC50(MKK4) > 10),+++ (IC50(off-target)/IC50(MKK4) > 100)
"CCCS(=O)(=O)Nc1c(F)ccc(C(=O)c2c[nH]c3ncc(-c4cnc(C(N)=O)nc4)cc23)c1F [Example 190, 5-(3-(2,4-difluoro-3-(propylsulfonamido)benzoyl)-1H-pyrrolo[2,3-b]pyridin-5-yl)pyrimidine-2-carboxamide]",< 100 nM,+++ (IC50(off-target)/IC50(MKK4) > 100),+++ (IC50(off-target)/IC50(MKK4) > 100),+++ (IC50(off-target)/IC50(MKK4) > 100)
"CCCS(=O)(=O)Nc1c(F)ccc(C(=O)c2c[nH]c3ncc(-c4cnc(N5CCCC5)nc4)cc23)c1F [Example 191, N-(2,6-difluoro-3-(5-(2-(pyrrolidin-1-yl)pyrimidin-5-yl)-1H-pyrrolo[2,3-b]pyridine-3-carbonyl)phenyl)propane-1-sulfonamide]",100 to 1000 nM,+++ (IC50(off-target)/IC50(MKK4) > 100),+++ (IC50(off-target)/IC50(MKK4) > 100),+++ (IC50(off-target)/IC50(MKK4) > 100)
"CCCS(=O)(=O)Nc1c(F)ccc(C(=O)c2c[nH]c3ncc(-c4cnc(NCCCOC)nc4)cc23)c1F [Example 192, N-(2,6-difluoro-3-(5-(2-((3-methoxypropyl)amino)pyrimidin-5-yl)-1H-pyrrolo[2,3-b]pyridine-3-carbonyl)phenyl)propane-1-sulfonamide]",100 to 1000 nM,+++ (IC50(off-target)/IC50(MKK4) > 100),++ (100 ≥ IC50(off-target)/IC50(MKK4) > 10),+++ (IC50(off-target)/IC50(MKK4) > 100)
"CCCS(=O)(=O)Nc1c(F)ccc(C(=O)c2c[nH]c3ncc(-c4cnc(C(C)C)nc4)cc23)c1F [Example 193, N-(2,6-difluoro-3-(5-(2-isopropylpyrimidin-5-yl)-1H-pyrrolo[2,3-b]pyridine-3-carbonyl)phenyl)propane-1-sulfonamide]",< 100 nM,++ (100 ≥ IC50(off-target)/IC50(MKK4) > 10),+++ (IC50(off-target)/IC50(MKK4) > 100),+++ (IC50(off-target)/IC50(MKK4) > 100)
"CCCS(=O)(=O)Nc1c(F)ccc(C(=O)c2c[nH]c3ncc(-c4cnc(N5CCN(C)CC5)nc4)cc23)c1F [Example 194, N-(2,6-difluoro-3-(5-(2-(4-methylpiperazin-1-yl)pyrimidin-5-yl)-1H-pyrrolo[2,3-b]pyridine-3-carbonyl)phenyl)propane-1-sulfonamide]",100 to 1000 nM,++ (100 ≥ IC50(off-target)/IC50(MKK4) > 10),++ (100 ≥ IC50(off-target)/IC50(MKK4) > 10),+++ (IC50(off-target)/IC50(MKK4) > 100)
